Measurements from US6875760B2 (Novo Nordisk A/S, priority 1999, dated 2005).

Molecular target: T1, human glucagon receptor (Homo sapiens, UniProt P47871)
T1 construct: expressed in transfected cells; host or cells: BHK (baby hamster kidney) cells
Assay: Glucagon Binding Assay (III)
Conditions: BHK cell membranes, WGA SPA beads, 125I-glucagon; read-out: Glu Bd Assay (III) IC50
Outline: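 Non-specific binding was set with 500 nM glucagon in this SPA-type binding assay using WGA beads. The receptor source was a membrane preparation, kept on ice or at 4 °C, from BHK cells transfected with the human receptor. Scintillation counts were taken after 4 hours of shaking and 8–48 hours of settling.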

T1 sequence (P47871 26-477): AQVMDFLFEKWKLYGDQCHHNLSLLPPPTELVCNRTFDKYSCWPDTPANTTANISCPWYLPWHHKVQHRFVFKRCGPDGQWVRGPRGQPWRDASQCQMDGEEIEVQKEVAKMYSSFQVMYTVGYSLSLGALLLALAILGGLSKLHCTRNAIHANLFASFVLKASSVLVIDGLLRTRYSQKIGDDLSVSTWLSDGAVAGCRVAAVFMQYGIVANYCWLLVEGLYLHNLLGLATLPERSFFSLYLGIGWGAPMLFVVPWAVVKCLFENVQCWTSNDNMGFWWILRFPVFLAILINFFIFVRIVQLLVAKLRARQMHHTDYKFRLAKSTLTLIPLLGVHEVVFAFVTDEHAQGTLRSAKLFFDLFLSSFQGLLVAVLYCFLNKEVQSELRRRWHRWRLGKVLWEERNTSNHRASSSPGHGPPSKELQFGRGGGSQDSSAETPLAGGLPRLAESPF

SMILES | IC50 [nM]
CC(C)(C)C1CCC(N(Cc2ccc(C(=O)NCCC(=O)O)cc2)C(=O)Nc2ccc(Oc3ccccc3)cc2)CC1 (centres unmarked) [Example 57, 3-{4-[1-(4-tert-Butylcyclohexyl)-3-(4-phenoxyphenyl)ureidomethyl]benzoylamino}propionic acid] | 90
CC(C)(C)C1CCC(N(Cc2ccc(C(=O)NCCC(=O)O)cc2)C(=O)NCCc2cccs2)CC1 (centres unmarked) [Example 23, 3-{4-[1-(4-tert-Butylcyclohexyl)-3-(2-thiophen-2-ylethyl)ureidomethyl]benzoylamino}propionic acid] | 1800
CCC[C@H]1CC[C@H](N(Cc2ccc(C(=O)NCCC(=O)O)cc2)C(=O)Nc2ccc(OC(F)(F)F)cc2)CC1 [Example 76, 3-{4-[1-(4-trans-Propylcyclohexyl)-3-(4-trifluoromethoxyphenyl)ureidomethyl]benzoylamino}propionic acid] | 135
CC1CCC(N(Cc2ccc(C(=O)NCCC(=O)O)cc2)C(=O)Nc2ccc(OC(F)(F)F)cc2)CC1 (centres unmarked) [Example 15, 3-{4-[1-(4-Methylcyclohexyl)-3-(4-trifluoromethoxyphenyl)ureidomethyl]benzoylamino}propionic acid] | 826
CC(C)(C)C1CCC(N(Cc2ccc(C(=O)NCCC(=O)O)cc2)C(=O)Oc2cc(C(F)(F)F)cc(C(F)(F)F)c2)CC1 (centres unmarked) [Example 403, 3-(4-{[(3,5-Bis(trifluoromethyl)phenoxycarbonyl)-(4-tert-butylcyclohexyl)amino]methyl}benzoylamino)propionic acid] | 338
CC(C)(C)C1CCC(N(Cc2ccc(C(=O)NCCC(=O)O)cc2)C(=O)Oc2ccc(Br)cc2Br)CC1 (centres unmarked) [Example 404, 3-(4-{[(4-tert-Butylcyclohexyl)-(2,4-dibromophenoxycarbonyl)amino]methyl}benzoylamino)propionic acid] | 346
CC(C)(C)c1ccc(N(Cc2ccc(C(=O)Nc3nn[nH]n3)cc2)C(=O)Nc2ccc3c(c2)S(=O)(=O)CC3)cc1 [Example 259, 4-[1-(4-tert-Butylphenyl)-3-(1,1-dioxo-2,3-dihydro-1H-benzo[b]thiophen-6-yl)ureidomethyl]-N-(2H-tetrazol-5-yl)benzamide] | 1690
CC(C)c1ccc(NC(=O)N(Cc2ccc(C(=O)NCCC(=O)O)cc2)C2CC3CC(C2C)C3(C)C)cc1 (centres unmarked) [Example 66, 3-{4-[3-(4-Isopropylphenyl)-1-(2,6,6-trimethylbicyclo[3.1.1]hept-3-yl)ureidomethyl]benzoylamino}propionic acid] | 267
CCC(C)(C)[C@H]1CC[C@H](N(Cc2ccc(C(=O)NCCC(=O)O)cc2)C(=O)Nc2ccc(OC(F)(F)F)cc2)CC1 [Example 78, 3-{4-[1-[4-trans-(1,1-Dimethylpropyl)cyclohexyl]-3-(4-trifluoromethoxyphenyl)ureidomethyl]benzoylamino}propionic acid] | 49
CCCCC(CC)CN(Cc1ccc(C(=O)NCCC(=O)O)cc1)C(=O)Nc1ccc(OC(F)(F)F)cc1 (centres unmarked) [Example 96, 3-{4-[1-(2-Ethylhexyl)-3-(4-trifluoromethoxyphenyl)ureidomethyl]benzoylamino}propionic acid] | 137
CC(=O)c1ccc(NC(=O)N(Cc2ccc(C(=O)NCCC(=O)O)cc2)C2CCC(C(C)(C)C)CC2)cc1 (centres unmarked) [Example 32, 3-{4-[1-(4-tert-Butylcyclohexyl)-3-(4-acetylphenyl)ureidomethyl]benzoyl}aminopropionic acid] | 1680
CC(C)(C)c1ccc(N(Cc2ccc(C(=O)NCCC(=O)O)cc2)C(=O)Oc2cccc(OC(F)(F)F)c2)cc1 [Example 412, 3-(4-{[(4-tert-Butylphenyl)-(3-trifluoromethoxyphenoxycarbonyl)amino]methyl}benzoylamino)propionic acid] | 604
CC(C)(C)C1CCC(N(Cc2ccc(C(=O)NCCC(=O)O)cc2)C(=O)Oc2ccc(Cl)c(Cl)c2)CC1 (centres unmarked) [Example 401, 3-(4-{[(4-tert-Butylcyclohexyl)-(3,4-dichlorophenoxycarbonyl)amino]methyl}benzoylamino)propionic acid] | 176

Second part, the compound after the results:

IC50 [nM] | SMILES
57 | CC(=O)c1cccc(NC(=O)N(Cc2ccc(C(=O)Nc3nn[nH]n3)cc2)c2ccc(C3CCCCC3)cc2)c1 [Example 283, 4-[3-(3-Acetylphenyl)-1-(4-cyclohexylphenyl)ureidomethyl]-N-(2H-tetrazol-5-yl)benzamide]
222 | O=C(Nc1nn[nH]n1)c1ccc(CN(C(=O)Nc2ccc(OC(F)(F)F)cc2)C2CCC(C3CC3)CC2)cc1 (centres unmarked) [Example 604, 4-[1-(4-Cyclopropylcyclohexyl)-3-(4-trifluoromethoxyphenyl)ureidomethyl]-N-(2H-tetrazol-5-yl)benzamide]
2680 | O=C(O)c1ccc2nc(NC(=O)N(Cc3ccc(C(=O)Nc4nn[nH]n4)cc3)c3ccc(C4CCCCC4)cc3)sc2c1 [Example 364, 2-{3-(4-Cyclohexylphenyl)-3-[4-(2H-tetrazol-5-ylcarbamoyl)benzyl]ureido}benzothiazole-6-carboxylic acid]
479 | O=C(O)CCNC(=O)c1ccc(CN(C(=O)c2cc3ccccc3s2)C2CCC3(CCCCC3)CC2)cc1 [Example 619, 3-(4-{[(Benzo[b]thiophene-2-carbonyl)spiro[5.5]undec-3-yl-amino]methyl}benzoylamino)propionic acid]
10 | CC(C)(C)c1ccc(N(Cc2ccc(C(=O)Nc3nn[nH]n3)cc2)C(=O)Nc2ccc(OC(F)(F)F)cc2)cc1 [Example 374, 4-[1-(4-tert-Butylphenyl)-3-(4-trifluoromethoxyphenyl)ureidomethyl]-N-(2H-tetrazol-5-yl)benzamide]
3450 | CS(=O)(=O)c1ccc(NC(=O)N(Cc2ccc(C(=O)Nc3nn[nH]n3)cc2)c2ccc(OC(F)(F)F)cc2)cc1 [Example 451, 4-[3-(4-Methylsulfonylphenyl)-1-(4-trifluoromethoxyphenyl)ureidomethyl]-N-(2H-tetrazol-5-yl)benzamide]
2810 | CC(C)(C)c1ccc(N(Cc2ccc(C(=O)Nc3nn[nH]n3)cc2)C(=O)Nc2cccc(C(=O)O)c2)cc1 [Example 456, 3-{3-(4-tert-Butylphenyl)-3-[4-(2H-tetrazol-5-ylcarbamoyl)benzyl]ureido}benzoic acid]
129 | O=C(O)CCNC(=O)c1ccc(CN(C(=O)Nc2cc(C(F)(F)F)cc(C(F)(F)F)c2)C2CCC3(CCCCC3)CC2)cc1 [Example 614, 3-{4-[3-(3,5-Bis(trifluoromethyl)phenyl)-1-spiro[5.5]undec-3-ylureidomethyl]benzoylamino}propionic acid]
450 | CC(C)(C)C1CCC(N(Cc2ccc(C(=O)Nc3nn[nH]n3)cc2)C(=O)c2cccc3ccccc23)CC1 (centres unmarked) [Example 515, 4-{[(4-tert-Butylcyclohexyl)-(naphth-1-ylcarbonyl)amino]methyl}-N-(2H-tetrazol-5-yl)benzamide]
1770 | Cc1ccc(NC(=O)N(Cc2ccc(C(=O)NCCS(=O)(=O)O)cc2)c2ccc(C(C)(C)C)cc2)cc1S(C)(=O)=O [Example 569, 2-{4-[1-(4-tert-Butylphenyl)-3-(3-methylsulfonyl-4-methylphenyl)ureidomethyl]-benzoylamino}ethanesulfonic acid]
304 | CC(Oc1ccc(Cl)cc1)C(=O)N(Cc1ccc(C(=O)Nc2nn[nH]n2)cc1)C1CCC(C(C)(C)C)CC1 (centres unmarked) [Example 542, 4-({(4-tert-Butylcyclohexyl)-[2-(4-chlorophenoxy)propionyl]amino}methyl)-N-(2H-tetrazol-5-yl)benzamide]
631 | CS(=O)(=O)c1cccc(NC(=O)N(Cc2ccc(C(=O)NCCC(=O)O)cc2)c2ccc(C3CCCCC3)cc2)c1 [Example 469, 3-{4-[1-(4-Cyclohexylphenyl)-3-(3-methylsulfonylphenyl)ureidomethyl]benzoylamino}propionic acid]
264 | CC(Oc1ccc(Cl)cc1)C(=O)N(Cc1ccc(C(=O)Nc2nn[nH]n2)cc1)c1ccc(C2CCCCC2)cc1 (centres unmarked) [Example 491, 4-{[[2-(4-Chlorophenoxy)propionyl]-(4-cyclohexylphenyl)amino]methyl}-N-(2H-tetrazol-5-yl)benzamide]
220 | O=C(O)CCNC(=O)c1ccc(CN(NC(=O)c2ccc(OC(F)(F)F)cc2)C2C[C@@H]3C[C@H]2C2CCCC23)cc1 (some centres unmarked) [Example 425, 3-{4-[N-(Octahydro-4,7-methanoinden-5-yl)-N′-(4-trifluoromethoxybenzoyl)hydrazinomethyl]benzoylamino}propionic acid]
3420 | O=C(O)CCNC(=O)c1ccc(CN(C(=O)c2ccc(Cc3ccccc3)cc2)c2ccc(C3CCCCC3)cc2)cc1 [Example 521, 3-(4-{[(4-Benzylbenzoyl)-(4-cyclohexylphenyl)amino]methyl}benzoylamino)propionic acid]
540 | CC(C)(C)C1CCC(N(Cc2ccc(C(=O)Nc3nn[nH]n3)cc2)C(=O)CCC(=O)c2ccc(Cl)cc2)CC1 (centres unmarked) [Example 540, 4-({(4-tert-Butylcyclohexyl)-[4-(4-chlorophenyl)-4-oxobutyryl]amino}methyl)-N-(2H-tetrazol-5-yl)benzamide]
214 | CCS(=O)(=O)c1cccc(NC(=O)N(Cc2ccc(C(=O)Nc3nn[nH]n3)cc2)c2ccc(C(C)(C)C)cc2)c1 [Example 454, 4-[1-(4-tert-Butylphenyl)-3-(3-ethylsulfonylphenyl)ureidomethyl]-N-(2H-tetrazol-5-yl)benzamide]
25 | O=C(Nc1nn[nH]n1)c1ccc(CN(C(=O)Nc2ccc(Cl)c(Cl)c2)c2ccc(C3CCCCC3)cc2)cc1 [Example 346, 4-[1-(4-Cyclohexylphenyl)-3-(3,4-dichlorophenyl)ureidomethyl]-N-(2H-tetrazol-5-yl)benzamide]

Same assay, conditions: value printed in the text of Example 315; read-out: Glu bd assay III

IC50 [nM] | SMILES
22 | CS(=O)(=O)c1cc(NC(=O)N(Cc2ccc(C(=O)Nc3nn[nH]n3)cc2)c2ccc(C3=CCCCC3)cc2)ccc1OC(F)(F)F [Example 315, 4-[1-(4-Cyclohex-1-enylphenyl)-3-(3-methylsulfonyl-4-trifluoromethoxyphenyl)ureidomethyl]-N-(2H-tetrazol-5-yl)benzamide]
